{"source": "patent US20020177166A1", "about": "“Binding motif of a receptor” (MEDVET SCIENCE PTY.LTD., priority 2000, published 2002)", "key": {"[1]": {"tested_on": "Ser585 phosphorylation of βc in CTL-EN cells", "assay": "Ser585 phosphorylation of βc in CTL-EN cells expressing IL-3Ra and wtβc, immunoblot", "assay_type": "cell-based", "text": "(§1) The βc was immunoprecipitated and then subjected to immunoblot analysis using the anti-phospho-Ser585βc antibody. […] Immunoprecipitates were electrophoresed on a polyacrylamide gel and the amount of radiolabelled receptor immunoprecipitated was quantified using a phosphorImager.\n(§2) After various treatments, cells were lysed, βc was immunoprecipitated, and subjected to immunoblot analysis with the anti-phospho-Ser585 antibody."}, "[2]": {"molecular_target": "T1, βc association with 14-3-3ζ (Homo sapiens, UniProt P63104)", "T1 construct": "expressed in transfected cells; host or cells: HEK293T (βc)", "T1 sequence (P63104 1-245)": "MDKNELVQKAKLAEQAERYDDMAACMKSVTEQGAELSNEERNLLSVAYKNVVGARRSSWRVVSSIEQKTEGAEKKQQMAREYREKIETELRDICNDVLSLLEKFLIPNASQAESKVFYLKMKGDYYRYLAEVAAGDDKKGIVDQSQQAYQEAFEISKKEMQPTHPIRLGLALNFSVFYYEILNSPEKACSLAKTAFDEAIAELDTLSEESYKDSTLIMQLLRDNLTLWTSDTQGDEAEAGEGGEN", "assay": "GST-14-3-3-sepharose precipitation of βc from transfected HEK293T lysates with peptide competition", "assay_type": "binding", "settings": "for inhibition of βc association with GST-14-3-3 in pull-down: peptides 100 uM", "method": "Lysates of HEK293T cells transfected with βc were immunoprecipitated with GST-14-3-3-sepharose in the absence or in the presence of chemically-synthesised peptides (100 uM) containing a βc sequence ([…]) or a Raf-1 sequence ([…]). In the phosphorylated peptides the relevant phosphorylated serine is underlined. The experiment was performed on 7.5% SDS-PAGE under reducing conditions. The presence of βc in the precipitation experiment was determined by Western blotting with anti-βc antibody (MAb 1C1).\nLysates of HEK293T cells transfected with βc were precipitated with GST-14-3-3-sepharose in the absence or in the presence of various concentrations of chemically-synthesised peptides. […] The appropriate phosphorylated serine in each peptide is underlined. The experiment was performed on 7.5% SDS-PAGE under reducing conditions. The presence of βc in the immunoprecipitates was determined by Western blotting with anti-βc antibody (MAb 1C1).\nCells were lysed in lysis buffer for 30 mins at 4° C. followed by centrifugation of the lysate for 15 mins at 12,000 g 4° C. […] Samples were boiled for 5 mins in SDS sample load buffer in the presence of 2-mercaptoethanol before separating precipitated proteins by SDS-PAGE.\nCell lysates were precipitated or immunoprecipitated in the presence of various concentrations of the following peptides: βc peptide sequence […] either non phosphorylated or serine phosphorylated and a scrambled peptide […]. Raf1 peptides corresponding to the sequence […] were also used and were either non phosphorylated or serine phosphorylated. The corresponding phosphorylated serine in each peptide is underlined. Peptides were synthesised by Chiron Mimotopes, Melbourne, Australia. The presence of βc in either the immunoprecipitation or precipitation experiment was determined by Western blotting with anti-βc antibody (MAb 1C1)."}, "[3]": {"tested_on": "Ser585 phosphorylation of βc in MO7e cells", "assay": "Ser585 phosphorylation and 14-3-3 recruitment in MO7e cells", "assay_type": "cell-based", "settings": "30 μM H89 for 15 minutes prior to IL-3", "text": "as §1, §2"}, "[4]": {"tested_on": "TF-1", "assay": "TF-1 proliferation assay", "assay_type": "cell-based", "settings": "recombinant human cytokine produced in E. coli", "method": "Acad. Sci., 91, 5838. Cytokine purity and quantitation was determined by HPLC analysis and Coomasie staining of SDS-PAGE separated proteins."}, "[5]": {"tested_on": "585Ser phosphorylation of βc in M1 myeloid leukaemic cells", "assay": "585Ser phosphorylation of βc in M1 cells, immunoblot", "assay_type": "cell-based", "settings": "2 ng/ml GM-CSF", "method": "(§3) Lysates of HEK293T cells transfected with wild type βc were immunoprecipitated with anti-βc antibody (MAb 8E4). Immunoprecipitates were run on 7.5% SDS-PAGE under reducing conditions. […] M1 cells expressing GM-CSFRa and βc were either untreated (−) or stimulated with GM-CSF (2 ng/ml) for 30 seconds (+). Lysates of the M1 cells were immunoprecipitated with anti-βc antibody (MAb 8E4) and the immunoprecipitates run on 10% SDS-PAGE under reducing conditions."}, "[6]": {"tested_on": "anti-phospho-585Ser recognition of βc", "assay": "Western blot of immunoprecipitated βc with peptide-preincubated anti-phospho-585Serβc antibody", "assay_type": "binding, human", "settings": "100 fold molar excess of peptide", "method": "as §3\nThese possibilities were initially addressed using ^32P-orthophosphate labelled HEK 293T cells transfected with the GM-CSF receptor (α and βc subunits). These cells were stimulated with GM-CSF, total βc was immunoprecipitated and examined for ^32P-labelling. This is most likely due to the presence of sixty serine and threonine residues in the intracellular region of βc, some of which may be constitutively phosphorylated."}, "[7]": {"molecular_target": "T2, PKA (Homo sapiens, UniProt P17612)", "T2 construct": "substrate Hisβc445-881 expressed in bacteria", "assay": "In vitro kinase assay, PKA phosphorylation of hisβc445-881 with peptide competition", "assay_type": "biochemical", "settings": "200 mM peptides", "method": "Peptide competitions were also performed using 200 mM peptides containing the indicated sequences. b) The ability of PKA and CKII to phosphorylate Ser585 of hisβc445-881 was examined by immunoblot analysis using the anti-phospho-Ser585βc antibodies. Filters were probed firstly with anti-phospho-Ser585βc antibodies (top panel). […] Cells were then lysed and βc immunoprecipitated with 1C1. Ser585 phosphorylation of βc was determined using the anti-phospho-Ser585 antibodies (top panel). The filter was then stripped and re-probed with anti βc 1C1 antibodies.\nIn an effort to identify the kinase involved in the phosphorylation of Ser585, we firstly examined the ability of several kinases to phosphorylate the purified recombinant intracellular portion of βc (hisβc445-881) in vitro. Ser585 of βc lies within a SXXD motif which is known to be a CKII consensus phosphorylation site. Ser585 also lies within a RS motif which is a possible, but poor, PKA phosphorylation site. […] Additional bands for the PKA kinase reactions were evident due to the autocatalytic activity of PKA. […] In this experiment, the non-phospho-HSRSLP peptide is likely to act as a competitive substrate for phosphorylation of Ser585 of hisβc445-881 by PKA. […]"}, "[8]": {"tested_on": "interaction of hisβc445-881 with p85 and 14-3-3", "assay": "PKA-phosphorylated hisβc445-881 Sepharose pull-down from COS-7 lysates with peptide competition", "assay_type": "binding", "settings": "200 mM competing peptides, 1 hour at 4° C.", "method": "(a) analysis of PI 3-kinase activity. […] Cells were then lysed and phospho-tyrosine containing proteins were immunoprecipitated (2×10^7 cells/IP) using the 4G10 antibody. Immunoprecipitates were washed in 1× PI 3-kinase buffer (20 mM HEPES, pH 7.5, 5 mM MgCl2, 1 mM EGTA) and PI 3-kinase activity was analysed in a lipid kinase assay using phosphatidyl inositol and g^32PATP as substrates as described in the “Materials and Methods”. Autoradiogram of TLC plate is shown with ^32P-labelled phosphatidyl inositols (PIP) and the origin indicated. […] (b) CTL-EN cells were also examined for the association of βc with p85. […] Cells were then lysed and the βc immunoprecipitated (2×10^7 cells/IP) with the 1C1 anti-βc specific mAb. Immunoprecipitates were then subjected to SDS-PAGE, transferred to nitrocellulose and immunoblotted with anti-p85 (1 mg/ml) followed by detection with HRP-conjugated anti-rabbit IgG antibody and ECL. The filters were then stripped, probed with anti-SHP2 (1 mg/ml), stripped again and finally probed with 1C1 anti-βc (2 mg/ml). […] The association of hisβc445-881 with p85 was also assessed in pull-down experiments together with peptide competition. (c) List of peptides used in the hisbβc445-881 pull-down experiment. S refers to a phospho-serine residue. […]"}, "[9]": {"tested_on": "CC[C@H](C)[C@H](NC(=O)[C@H](CC(=O)O)NC(=O)[C@@H]1CCCN1C(=O)[C@H](CC(C)C)NC(=O)[C@H](CO)NC(=O)[C@H](CCCNC(=N)N)NC(=O)[C@H](CO)NC(=O)[C@H](Cc1c[nH]cn1)NC(=O)[C@@H]1CCCN1C(=O)[C@@H]1CCCN1C(=O)CNC(=O)[C@H](CC(C)C)NC(=O)[C@@H](N)CS)C(=O)N[C@@H](CC(C)C)C(=O)NCC(=O)O", "assay": "purified protein, by the assay type", "settings": "other: peptide as PKA substrate, hyperbolic regression analysis; 21.0 °C"}}, "note": "Ends that are not written are not given here."}
{"compound": "CCCC(=O)Nc1ncnc2c1ncn2[C@@H]1O[C@@H]2COP(=O)(O)O[C@H]2[C@H]1OC(=O)CCC", "note": "[db-cAMP, dibutyryl cAMP]", "values": [{"measurement": "Ser585 phosphorylation of βc after stimulation", "setting": "[1]; 50 ng/ml IL-3, 50 μM forskolin or 100 μM dibutyryl cAMP", "result": "increased Ser585 phosphorylation"}]}
{"compound": "CLSQRQRSTSTPNVHM [nonphosphorylated Raf-1 peptide]", "values": [{"measurement": "inhibition of βc association with GST-14-3-3 in pull-down", "setting": "[2]", "result": "did not"}]}
{"compound": "O=S(=O)(NCCNC/C=C/c1ccc(Br)cc1)c1cccc2cnccc12", "note": "[H89]", "values": [{"measurement": "effect on IL-3 induced phosphorylation of Ser585", "setting": "[1]; 30 μM H89 for 15 minutes prior to IL-3", "result": "significantly reduced the IL-3 induced phosphorylation of Ser585"}, {"measurement": "effect on IL-3 induced phosphorylation of Ser585", "setting": "[3]", "result": "significantly reduced the IL-3 induced phosphorylation of Ser585"}]}
{"compound": "GM-CSF: recombinant human GM-CSF produced in E. coli", "values": [{"measurement": "ED50 in TF-1 proliferation assay", "setting": "[4]", "result": 0.03, "unit": "ng/mL"}, {"measurement": "585Ser phosphorylation of βc", "setting": "[5]", "result": "strongly upregulated ^585Ser phosphorylation of βc"}]}
{"compound": "CPLSLRSKPSPGPGP", "values": [{"measurement": "inhibition of βc association with 14-3-3, dose dependence and specificity", "setting": "[2]; various concentrations of peptides (FIG. 8)", "result": "failed to inhibit this association"}]}
{"compound": "CLSQRQRSTSTPNVHM [serine phosphorylated Raf-1 peptide] (also: serine phosphorylated, position not given here)", "values": [{"measurement": "inhibition of βc association with GST-14-3-3 in pull-down", "setting": "[2]", "result": "able to inhibit βc association with 14-3-3"}]}
{"compound": "CLPLSGPDSHIRGPL [scrambled peptide]", "values": [{"measurement": "inhibition of anti-phospho-585Ser recognition of βc", "setting": "[6]", "result": "did not"}, {"measurement": "effect on phosphorylation of hisβc445-881 by PKA", "setting": "[7]", "result": "did not"}, {"measurement": "effect on interaction of p85 with hisβc445-881", "setting": "[8]", "result": "had no apparent effect on this interaction"}]}
{"compound": "PKA (Homo sapiens)", "values": [{"measurement": "Km", "setting": "[9]", "result": 376, "unit": "µM"}, {"measurement": "Vmax", "setting": "[9]", "result": 250, "unit": "nmol/min/mg"}]}
